Holding throughout (assay): NCI-60 cell line screen, 48 h
For experiment [1], the system named is SF-539.
For experiment [2], the system named is UACC-62.
Experiment [3] concerns CCRF-CEM.
The subject of experiment [4] is HOP-62.
Experiment [5] deals with SR.
Experiment [6] concerns EKVX.
The subject of experiment [7] is COLO 205.
Experiment [8] relates to LOX IMVI.
For experiment [9], the system named is Malme-3M.
For experiment [10], the system named is HCT-15.
The subject of experiment [11] is NCI-H522.
Experiment [12] concerns OVCAR-3.
The subject of experiment [13] is SK-OV-3.
The subject of experiment [14] is UO-31.
Experiment [15] has as its system A498.
In experiment [16] the test system is SNB-75.
Experiment [17] deals with NCI-H226.

These results are taken from ChEMBL document CHEMBL1201862, “PubChem BioAssay data set” (2004).

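How tested: cells in 96-well plates exposed to compound for 48 hours at five concentrations. At the GI50, growth is halved.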 Active and inactive are the calls of the source. Rule as the data show it: active = GI50 up to about 1.1 µM and inactive = higher.

As for `Cc1nc(NC(=S)NC(=O)c2ccc(Cl)c(Cl)c2)sc1C(=O)/C=C/c1ccccc1[N+](=O)[O-]`, the GI50 in experiment [1] is 19 µM (inactive); in [2] it was 10.9 µM (inactive); in experiment [3], 22.4 µM (inactive); in [4], 21.2 µM (inactive); in [5], 24.5 µM (inactive); in [6], 32.7 µM (inactive). The GI50 in experiment [7] was 18.4 µM (inactive); in experiment [8], 16.6 µM (inactive); in [9], 18.5 µM (inactive); in experiment [10], 20.4 µM; in experiment [11], 16.9 µM (inactive); in [12] it was 22.1 µM (inactive). Moreover, the GI50 in experiment [13] was 15.6 µM (inactive); in experiment [14], 20.8 µM (inactive).
Regarding `O=C(O)C#CCO`, the GI50 in [1], in experiment [2], in experiment [15], in experiment [3], in [16] and in experiment [4] was > 100 µM (inactive) in each case. Besides, the GI50 in [6] is > 100 µM (inactive); in [7], > 100 µM (inactive); in [8], > 100 µM (inactive); in experiment [9], > 100 µM (inactive); in [10] it was greater than 100 µM; in [11], > 100 µM (inactive). Also, the GI50 in experiment [12], in experiment [13] and in [14] was > 100 µM (inactive) each time.
On to `COc1ccccc1NC(=O)C(CC(C(=O)Nc1ccccc1OC)/C(C)=N/NC(=O)c1ccccc1O)/C(C)=N/NC(=O)c1ccccc1O` (stereo not drawn), for which the GI50 in [1] was 54.2 µM (inactive); in experiment [15], 65 µM (inactive); in [3], 33 µM (inactive); in experiment [16] it was 96.6 µM (inactive); in experiment [4], > 100 µM (inactive); in [6], 72.9 µM (inactive). In addition, the GI50 was > 100 µM (inactive) in experiment [7]; > 100 µM (inactive) in [8]; > 100 µM (inactive) in [9]; 64.4 µM (inactive) in experiment [11]; 54.1 µM (inactive) in [12]; > 100 µM (inactive) in experiment [13]. Besides, the GI50 in experiment [17] was 60.3 µM (inactive); in [14], 40.4 µM (inactive).
Take `COc1ccc(/C=C2\CCCCC2=O)cc1`: the GI50 in experiment [1] is > 100 µM (inactive); in [2], > 100 µM (inactive); in [15], > 100 µM (inactive); in [3], > 100 µM (inactive); in experiment [16] it was 41.8 µM (inactive); in experiment [4], > 100 µM (inactive). Further, the GI50 in experiment [6] is > 100 µM (inactive); in [7] it was > 100 µM (inactive); in [8], > 100 µM (inactive); in experiment [10], greater than 100 µM; in experiment [12] it was > 100 µM (inactive); in [13], > 100 µM (inactive). Besides, in experiment [14], the GI50 is > 100 µM (inactive).
In the case of `O=c1[nH]c2cc([N+](=O)[O-])ccc2nc1/C(=N/Nc1ccccc1)C(O)c1ccccc1Cl` (stereo not drawn), the GI50 in experiment [1] was 44.9 µM (inactive); in experiment [2], 11.2 µM (inactive); in [3] it was 33.5 µM (inactive); in experiment [16] it was 28.2 µM (inactive); in [4], 62.5 µM (inactive); in experiment [6], 67.3 µM (inactive). Further, the GI50 in [7] was 39.7 µM (inactive); in [8], > 100 µM (inactive); in experiment [9] it was 85.3 µM (inactive); in experiment [10] it was 7.8 µM; in [11] it was 4.68 µM (inactive); in experiment [12], 59.3 µM (inactive). Further, the GI50 is > 100 µM (inactive) in [13], 80.2 µM (inactive) in [17] and 21.1 µM (inactive) in experiment [14].
As for `Cc1cc(N(CCC#N)CCC#N)ccc1/C=C/C(=O)Nc1cccc(Cl)c1`, the GI50 in [1] is > 100 µM (inactive); in experiment [2], 46.9 µM (inactive); in experiment [15], > 100 µM (inactive); in [3], 85.7 µM (inactive); in experiment [16] it was 89.9 µM (inactive); in experiment [4] it was > 100 µM (inactive). Besides, the GI50 in experiment [6] was > 100 µM (inactive); in experiment [7], > 100 µM (inactive); in experiment [8], 52.2 µM (inactive); in experiment [9], > 100 µM (inactive); in experiment [10], 38.5 µM; in experiment [11], 62.7 µM (inactive). Also, the GI50 in [12] is > 100 µM (inactive); in [13] it was > 100 µM (inactive); in [17] it was > 100 µM (inactive); in experiment [14], 27.6 µM (inactive).
Take `N=C(N)NS(=O)(=O)c1ccc(NC(=O)c2cccc3c(Nc4ccc(S(=O)(=O)N=C(N)N)cc4)c4ccc(Cl)cc4nc23)cc1`: the GI50 in experiment [1] is > 100 µM (inactive); in experiment [2], 33.3 µM (inactive); in experiment [15], > 100 µM (inactive); in [3], 55 µM (inactive); in experiment [16], 30.8 µM (inactive); in [4] it was 58.6 µM (inactive). In addition, the GI50 in experiment [6] was 96.8 µM (inactive); in experiment [7], 47.2 µM (inactive); in experiment [8], 37.2 µM (inactive); in [9] it was 64.4 µM (inactive); in experiment [10] it was greater than 100 µM; in [11], 30.4 µM (inactive). The GI50 in experiment [12] is 60.5 µM (inactive); in experiment [13] it was 32.1 µM (inactive); in experiment [14] it was 50.8 µM (inactive).
As for `CC(=O)N1CCc2[nH]c3ccccc3c2CC1`, the GI50 in experiment [1] is > 100 µM (inactive); in [2], 86.1 µM (inactive); in [15] it was > 100 µM (inactive); in [3], > 100 µM (inactive); in [16], 19.9 µM (inactive); in [4], > 100 µM (inactive). For the same molecule, the GI50 in [6] is > 100 µM (inactive); in experiment [7], > 100 µM (inactive); in experiment [8], > 100 µM (inactive); in [9], > 100 µM (inactive); in experiment [10], greater than 100 µM; in experiment [12] it was > 100 µM (inactive). The GI50 in [13] is > 100 µM (inactive).
On to `O=[N+]([O-])c1cccc(C2=NN(c3ccccc3)C3c4ccccc4OCC23)c1` (stereo not drawn), for which the GI50 in experiment [1] was > 100 µM (inactive); in experiment [15], > 100 µM (inactive); in [3] it was 91 µM (inactive); in experiment [16], > 100 µM (inactive); in [4], > 100 µM (inactive); in [6] it was > 100 µM (inactive). Moreover, the GI50 in [7] was > 100 µM (inactive); in experiment [8], > 100 µM (inactive); in experiment [9], > 100 µM (inactive); in experiment [11], 62.1 µM (inactive); in [12], > 100 µM (inactive); in experiment [13] it was > 100 µM (inactive). Also, the GI50 in experiment [14] is 6.71 µM (inactive).
Turning to `C/C(CC(=O)Nc1cc(C)ccc1C)=N/N=C(N)N`, the GI50 in experiment [1], in experiment [2], in [15], in [3], in experiment [16] and in experiment [4] was > 100 µM (inactive) throughout. Moreover, the GI50 in [6], in experiment [7], in [8], in [9], in experiment [11] and in experiment [12] was > 100 µM (inactive) in each case. In addition, the GI50 in [13], in experiment [17] and in experiment [14] was > 100 µM (inactive) in each case.
